In PMC6017736, “Indole-3-Carbonitriles as DYRK1A Inhibitors by Fragment-Based Drug Design” (Molecules : A Journal of Synthetic Chemistry and Natural …, 2018):
Marks after values point to notes of the source that are not given here.

How the values were obtained:
CLK3 = CLK3 (Mus musculus, UniProt O35492); assay: Protein kinase assay ([γ-33P]-ATP, RS peptide substrate), CLK3; assay type: biochemical; settings: for IC50: 15 µM ATP; for inhibition at 10 µM: 10 µM compound, read-out: Inhibition at 10 µM CLK3 (class symbol)
Procedure: (§1) DYRK1A, 1B, 2, 3 (human, recombinant, expressed in E. coli as GST fusion proteins) and CLK1, 2, 3, and 4 (mouse, recombinant, expressed in E. coli as GST fusion proteins) were assayed as described for GSK-3 in Buffer A (supplemented extemporaneously with 0.15 mg BSA/mL + 1 mM DTT) with 1 µg of RS peptide ([…]) as a substrate.

CLK1 = CLK1 (Mus musculus, UniProt P22518); assay: Protein kinase assay ([γ-33P]-ATP, RS peptide substrate), CLK1; assay type: biochemical; settings: 15 µM ATP
Procedure: as §1

[1] = Kinetic solubility, laser nephelometry; assay type: physicochemical; settings: phosphate buffer pH 7.4, nephelometry
Procedure: The kinetic solubility was determined using laser nephelometry. A stock solution of the test compounds in DMSO was prepared and further diluted with DMSO to achieve a dilution series of 8–12 solutions with different concentrations. The DMSO solutions (2 µL) were placed in a row on a 96-well plate and diluted with aqueous phosphate buffer pH 7.4 (198 µL). The well plate was scanned by a nephelometer (Nephelostar Plus, BMG Labtech, Ortenberg, Germany). Unsolved particles scatter the laser light which is detected by the nephelometer. The intensity of the scattered light is proportional to the particle concentration in the suspension. The intensity of the scattered light was plotted versus the concentration to obtain a kick off curve. The concentration at which the compounds began to precipitate was directly read out from the kick off curve.

CLK2 = CLK2 (Mus musculus, UniProt O35491); assay: Protein kinase assay ([γ-33P]-ATP, RS peptide substrate), CLK2; assay type: biochemical; settings: for IC50: 15 µM ATP
Procedure: as §1

DYRK1B = DYRK1B (Homo sapiens, UniProt Q9Y463); assay: Protein kinase assay ([γ-33P]-ATP, RS peptide substrate), DYRK1B; assay type: biochemical; settings: 15 µM ATP; read-out: IC50 DYRK 1B
Procedure: as §1

DYRK3 = biological target: T1, DYRK3 (Homo sapiens, UniProt O43781); assay: Protein kinase assay ([γ-33P]-ATP, RS peptide substrate), DYRK3; assay type: biochemical; settings: for IC50: 15 µM ATP; for inhibition at 10 µM: 10 µM compound, read-out: Inhibition at 10 µM DYRK3 (class symbol)
T1 sequence (O43781 1-588): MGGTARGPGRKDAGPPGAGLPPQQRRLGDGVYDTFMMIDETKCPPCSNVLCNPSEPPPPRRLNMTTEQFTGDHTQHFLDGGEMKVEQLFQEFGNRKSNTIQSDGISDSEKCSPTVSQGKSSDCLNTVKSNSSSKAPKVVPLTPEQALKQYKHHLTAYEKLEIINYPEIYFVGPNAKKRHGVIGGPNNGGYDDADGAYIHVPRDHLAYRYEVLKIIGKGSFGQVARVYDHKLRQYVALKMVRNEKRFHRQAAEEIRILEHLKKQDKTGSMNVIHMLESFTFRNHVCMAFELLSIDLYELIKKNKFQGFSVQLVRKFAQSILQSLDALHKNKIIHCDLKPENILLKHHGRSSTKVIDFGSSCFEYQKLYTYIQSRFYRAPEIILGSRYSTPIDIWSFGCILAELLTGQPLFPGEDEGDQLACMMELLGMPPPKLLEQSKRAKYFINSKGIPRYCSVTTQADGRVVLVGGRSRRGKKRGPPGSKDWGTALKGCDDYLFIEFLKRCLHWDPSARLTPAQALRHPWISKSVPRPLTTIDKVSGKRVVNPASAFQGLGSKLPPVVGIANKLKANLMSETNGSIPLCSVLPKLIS
Procedure: as §1

CLK4 = CLK4 (Mus musculus, UniProt O35493); assay: Protein kinase assay ([γ-33P]-ATP, RS peptide substrate), CLK4; assay type: biochemical; settings: 15 µM ATP
Procedure: as §1

DYRK2 = biological target: T2, DYRK2 (Homo sapiens, UniProt Q92630); assay: Protein kinase assay ([γ-33P]-ATP, RS peptide substrate), DYRK2; assay type: biochemical; settings: for IC50: 15 µM ATP; for inhibition at 10 µM: 10 µM compound, read-out: Inhibition at 10 µM DYRK2 (class symbol)
T2 sequence (Q92630 1-601): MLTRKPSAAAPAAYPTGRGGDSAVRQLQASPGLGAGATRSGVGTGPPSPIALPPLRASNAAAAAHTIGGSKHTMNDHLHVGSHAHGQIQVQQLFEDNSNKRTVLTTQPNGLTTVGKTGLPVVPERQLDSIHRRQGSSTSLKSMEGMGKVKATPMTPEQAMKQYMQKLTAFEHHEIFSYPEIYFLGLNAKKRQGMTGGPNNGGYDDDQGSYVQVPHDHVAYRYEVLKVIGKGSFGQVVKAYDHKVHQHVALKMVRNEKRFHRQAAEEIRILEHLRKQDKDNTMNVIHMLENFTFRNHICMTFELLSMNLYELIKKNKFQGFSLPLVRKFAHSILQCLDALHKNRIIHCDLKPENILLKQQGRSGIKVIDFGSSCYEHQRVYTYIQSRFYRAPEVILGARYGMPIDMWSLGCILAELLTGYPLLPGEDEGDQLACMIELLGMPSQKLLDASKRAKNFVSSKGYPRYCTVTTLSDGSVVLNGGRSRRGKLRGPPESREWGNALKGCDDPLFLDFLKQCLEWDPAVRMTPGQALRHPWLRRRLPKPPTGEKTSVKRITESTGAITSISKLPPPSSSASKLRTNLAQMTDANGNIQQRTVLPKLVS
Procedure: as §1

[2] = Thermodynamic solubility, shake-flask method with HPLC quantification; assay type: physicochemical; settings: phosphate buffer pH 7.4, 25 °C
Procedure: For solubility assays an aqueous phosphate buffer pH 7.4 was used. The buffer was prepared by dissolving Na2HPO4 × 2 H2O (298 mg), KH2PO4 (19 mg) and NaCl (800 mg) in water (100 mL). The pH was adjusted to 7.4 by addition of hydrochloric acid. The thermodynamic solubility was determined using a shake-flask method with quantification by a HPLC method. The test compounds (500 µg) were incubated with aqueous phosphate buffer pH 7.4 (400 µL) in sealed Whatman MiniUniPrep vials (GE Healthcare, Freiburg, Germany). The mixtures were shaken at 25 °C and 400 rpm for 24–96 h (IKA KS 3000 ic control, IKA-Werke, Staufen, Germany). After 24 h, 48 h and 72 h, the mixtures were visually inspected for remaining solids and the solids were filtered off. The concentrations in the resulting saturated solutions were quantified by isocratic HPLC using calibration with external standard. If equilibrium was not reached after 72 h, solubility of a further sample was determined after 96 h. For calibration, a stock solution of 10 mM of the test compounds in DMSO was prepared and the stock solution was diluted with ACN to suitable concentrations. The AUC at the wavelength maxima was used for quantification.

GSK-3 = assay: Protein kinase assay ([γ-33P]-ATP, GS-1 substrate), GSK-3; settings: for Inhibition at 10 µM GSK3 (class symbol): 10 µM compound; for IC50: read-out: IC50 GSK3, 15 µM ATP
Procedure: First, the kinases were incubated with 10 µM solutions of the compounds and the residual activities compared to controls were measured.
Controls were performed with appropriate dilutions of DMSO. The GS-1 and RS peptide substrates were obtained from Proteogenix (Oberhausbergen, France).
After 30 min incubation at 30 °C, the reaction was stopped by harvesting onto P81 phosphocellulose supernatant (Whatman) using a FilterMate harvester (Packard) and washing in 1% phosphoric acid. Scintillation fluid was added and the radioactivity measured in a Packard counter [52].
All data points for construction of dose response curves were recorded in triplicate.

DYRK1A [3] = biological target: T3, DYRK1A (Homo sapiens, UniProt Q13627); assay: Protein kinase assay ([γ-33P]-ATP, RS peptide substrate), DYRK1A; assay type: biochemical; settings: 15 µM ATP; read-out: IC50 DYRK 1A
DYRK1A [4] = biological target: T3, DYRK1A; assay: Ligand-lipophilicity efficiency (pIC50 minus calculated logP)
Procedure: All new compounds were evaluated based on their physicochemical properties regarding Lipinski’s rule of five and the ligand-lipophilicity efficiency (LLE). Both concepts are used to assess the druglikeness of drug development candidates. […] LLE is calculated from pIC50 minus calculated logP [46].

[5] = Cytotoxicity, cell viability by tetrazolium dye assay (XTT assay); assay type: cell-based; settings: human, HeLa cells, read-out: Viability of treated HeLa cells relative to control cells
Procedure: To evaluate the applicability of the 2-substituted indole-3-carbonitrile compounds in cell culture experiments, we assessed toxicity of 6f, 6h, 6s and 13b on HeLa cells by viability assays (Table 4).
The inhibitors were added to the cultured cells from stock solutions in DMSO to the desired final concentration. For cytotoxicity assays, HeLa cells were grown in 96-well plates (20,000–30,000 cells per well) and incubated with the test compounds for 3 days before cell viability was evaluated with the help of a tetrazolium dye assay (XTT assay, AppliChem GmbH, Darmstadt, Germany).

[6] = pIC50 (DYRK1A) minus calculated logP

Sequence of DYRK1B (Q9Y463 whole entry): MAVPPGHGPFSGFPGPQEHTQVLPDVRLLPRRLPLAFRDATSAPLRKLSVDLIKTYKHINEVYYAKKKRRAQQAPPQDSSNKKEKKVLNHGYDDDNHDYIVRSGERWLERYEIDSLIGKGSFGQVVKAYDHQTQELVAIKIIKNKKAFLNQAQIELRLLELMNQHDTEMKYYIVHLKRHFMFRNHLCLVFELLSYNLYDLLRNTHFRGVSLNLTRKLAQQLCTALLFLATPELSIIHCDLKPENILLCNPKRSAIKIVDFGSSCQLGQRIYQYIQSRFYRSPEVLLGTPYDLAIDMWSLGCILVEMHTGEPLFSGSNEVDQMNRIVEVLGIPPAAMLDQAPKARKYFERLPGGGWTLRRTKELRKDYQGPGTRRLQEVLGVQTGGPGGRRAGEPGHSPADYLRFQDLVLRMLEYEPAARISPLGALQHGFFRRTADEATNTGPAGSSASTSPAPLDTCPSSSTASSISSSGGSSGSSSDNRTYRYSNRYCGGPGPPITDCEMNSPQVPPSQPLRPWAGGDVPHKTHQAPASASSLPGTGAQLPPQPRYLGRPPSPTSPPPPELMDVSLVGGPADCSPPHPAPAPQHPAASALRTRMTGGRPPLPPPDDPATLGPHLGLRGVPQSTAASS
Sequence of CLK1 (P22518 whole entry): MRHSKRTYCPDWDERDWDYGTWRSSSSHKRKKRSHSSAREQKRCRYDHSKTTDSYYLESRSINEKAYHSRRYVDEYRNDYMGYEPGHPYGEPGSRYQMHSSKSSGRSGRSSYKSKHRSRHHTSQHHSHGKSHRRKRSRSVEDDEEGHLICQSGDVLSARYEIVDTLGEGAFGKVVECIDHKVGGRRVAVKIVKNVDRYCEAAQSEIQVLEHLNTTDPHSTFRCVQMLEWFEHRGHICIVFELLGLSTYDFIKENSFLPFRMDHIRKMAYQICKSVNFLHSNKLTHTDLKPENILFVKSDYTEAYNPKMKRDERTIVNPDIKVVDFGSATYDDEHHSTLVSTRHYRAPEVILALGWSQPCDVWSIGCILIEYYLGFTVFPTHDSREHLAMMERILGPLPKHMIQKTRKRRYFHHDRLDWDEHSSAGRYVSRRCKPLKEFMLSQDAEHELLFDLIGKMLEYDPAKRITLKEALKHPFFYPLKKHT
Sequence of CLK4 (O35493 whole entry): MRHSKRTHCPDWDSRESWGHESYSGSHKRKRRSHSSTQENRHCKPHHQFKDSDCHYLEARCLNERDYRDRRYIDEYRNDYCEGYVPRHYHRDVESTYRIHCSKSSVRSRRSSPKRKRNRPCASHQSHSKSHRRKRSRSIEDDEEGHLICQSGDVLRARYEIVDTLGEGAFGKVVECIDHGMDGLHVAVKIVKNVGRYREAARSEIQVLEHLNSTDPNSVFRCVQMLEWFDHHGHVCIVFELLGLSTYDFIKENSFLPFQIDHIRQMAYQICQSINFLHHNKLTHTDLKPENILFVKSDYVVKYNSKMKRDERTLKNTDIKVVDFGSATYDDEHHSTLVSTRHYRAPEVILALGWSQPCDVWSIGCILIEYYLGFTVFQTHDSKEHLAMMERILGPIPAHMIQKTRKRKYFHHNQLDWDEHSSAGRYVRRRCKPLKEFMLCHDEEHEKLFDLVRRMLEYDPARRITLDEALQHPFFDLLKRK
Sequence of CLK2 (O35491 whole entry): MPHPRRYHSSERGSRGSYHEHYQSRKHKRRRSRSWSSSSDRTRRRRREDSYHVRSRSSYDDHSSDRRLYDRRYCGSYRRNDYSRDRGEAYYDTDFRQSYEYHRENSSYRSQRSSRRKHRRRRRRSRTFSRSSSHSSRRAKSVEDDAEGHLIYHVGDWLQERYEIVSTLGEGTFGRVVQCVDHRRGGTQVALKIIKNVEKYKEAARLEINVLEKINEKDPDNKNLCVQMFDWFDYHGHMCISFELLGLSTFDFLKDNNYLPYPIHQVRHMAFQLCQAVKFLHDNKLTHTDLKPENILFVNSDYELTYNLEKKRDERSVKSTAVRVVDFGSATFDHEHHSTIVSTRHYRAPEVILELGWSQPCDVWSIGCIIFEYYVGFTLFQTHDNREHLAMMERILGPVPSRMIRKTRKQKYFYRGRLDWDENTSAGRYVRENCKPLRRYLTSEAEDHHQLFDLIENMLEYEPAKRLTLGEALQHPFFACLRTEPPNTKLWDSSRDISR
Sequence of CLK3 (O35492 whole entry, the tested form may be a part): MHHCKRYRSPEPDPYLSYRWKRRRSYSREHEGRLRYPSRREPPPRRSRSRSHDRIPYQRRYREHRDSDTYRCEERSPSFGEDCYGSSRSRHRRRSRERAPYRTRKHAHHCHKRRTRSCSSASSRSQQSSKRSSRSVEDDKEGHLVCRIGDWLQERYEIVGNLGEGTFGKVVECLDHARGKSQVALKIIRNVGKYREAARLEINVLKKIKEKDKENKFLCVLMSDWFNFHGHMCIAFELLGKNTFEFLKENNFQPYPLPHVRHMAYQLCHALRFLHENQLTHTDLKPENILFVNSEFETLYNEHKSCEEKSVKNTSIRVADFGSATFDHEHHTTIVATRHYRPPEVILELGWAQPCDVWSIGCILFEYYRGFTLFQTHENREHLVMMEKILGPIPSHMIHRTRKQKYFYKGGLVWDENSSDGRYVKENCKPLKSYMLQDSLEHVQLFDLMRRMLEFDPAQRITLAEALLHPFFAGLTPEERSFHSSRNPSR

Compound	IC50 (CLK3) [nM]	IC50 (CLK1) [nM]	Sexp., kin., pH 7.4 [1]	IC50 (CLK2) [nM]	IC50 (DYRK1B) [nM]	IC50 (DYRK3) [nM]	IC50 (CLK4) [nM]	IC50 (DYRK2) [nM]	Sexp., therm., pH 7.4 [2]	inhibition at 10 µM (CLK3) [%]	IC50 (DYRK1A [3]) [nM]	inhibition at 10 µM (DYRK3) [%]	inhibition at 10 µM (DYRK2) [%]	LLE (DYRK1A [4]; Table S2)	other results
N#Cc1c[nH]c2c(Br)cccc12 [Compound 6b, 7-Bromo-1H-indole-3-carbonitrile]	> 10000	2900	142 ± 14 µM	> 10000	5900	> 10000	4000	> 10000	136 ± 11 µM						
N#Cc1c[nH]c2c(I)cccc12 [Compound 6c, 7-Iodo-1H-indole-3-carbonitrile]	> 10000	1900	261 (254–267) µM	8000	1800	> 10000	1800	8000	45.2 (44.8–45.6) µM						
N#Cc1c(-c2ccccc2)[nH]c2ccccc12 [Compound 6d, 2-Phenyl-1H-indole-3-carbonitrile]		800		> 10000	6000		2000			< 20	400	< 20	< 20	2.90	Inhibition at 10 µM GSK3 (class symbol) (GSK-3): - (-: less than 20% inhibition at 10 µM, IC50 was not determined)
N#Cc1c(-c2ccccc2)[nH]c2c(Cl)cccc12 [Compound 6f, 7-Chloro-2-phenyl-1H-indole-3-carbonitrile]	> 10000	70	14.7 ± 4.5 µM	> 10000	> 10000	> 10000	120	> 10000	<0.5 µM						viability at 3 days, 1 µM [5]: 94%; viability at 3 days, 3 µM [5]: 98%; viability at 3 days, 10 µM [5]: 85%
N#Cc1c(-c2ccccc2)[nH]c2c(Br)cccc12 [Compound 6g, 7-Bromo-2-phenyl-1H-indole-3-carbonitrile]	> 10000	67	14.8 ± 0.26 µM	433	120	> 10000	33	> 10000	<0.5 µM		25			3.34	LLE (DYRK1A [4]; [6]): 3.34
N#Cc1c(-c2cccnc2)[nH]c2c(I)cccc12 [Compound 6p, 7-Iodo-2-(pyridin-3-yl)-1H-indole-3-carbonitrile]		200	10.0 (7.21–12.9) µM	> 10000	300		> 10000			< 20	80	< 20	< 20	3.89	LLE (DYRK1A [4]; [6]): 3.89
CC(C)c1[nH]c2c(I)cccc2c1C#N [Compound 6q, 7-Iodo-2-isopropyl-1H-indole-3-carbonitrile]	> 10000	100		700	530	> 10000	100	> 10000			280			2.61	IC50 (GSK-3): 1300 nM
Cn1cc(C#N)c2cccc(Br)c21 [Compound 13d, 7-Bromo-1-methyl-1H-indole-3-carbonitrile]	> 10000	3330		> 10000	> 10000	> 10000	> 10000	> 10000			1900			2.80	IC50 (GSK-3): > 10000 nM
Cn1c(-c2ccccc2)c(C#N)c2cccc(Br)c21 [Compound 13e, 7-Bromo-1-methyl-2-phenyl-1H-indole-3-carbonitrile]		> 10000			10000		1000			< 20	2300	< 20	< 20	1.15	Inhibition at 10 µM GSK3 (class symbol) (GSK-3): - (-: less than 20% inhibition at 10 µM, IC50 was not determined); inhibition at 10 µM (CLK2; 10 µM compound, read-out: Inhibition at 10 µM CLK2 (class symbol)): < 20%
N#Cc1c(CC(O)CO)[nH]c2c(Cl)cccc12 (centres unmarked) [Compound 14, 7-Chloro-2-(2,3-dihydroxypropyl)-1H-indole-3-carbonitrile]		2000		10000	4200		2000		3447 ± 182 ^c µM	< 20	2000	< 20	< 20	4.59	IC50 (GSK-3): 2000 nM; LLE (DYRK1A [4]; [6]): 4.59
O=C(O)c1nc2ccccc2c2[nH]c3c(I)cccc3c12 [KuFal194 (5), 10-iodo-11H-indolo[3,2-c]quinoline-6-carboxylic acid, reference compound]			5.28 (4.99–5.57) µM						< 0.5 µM						viability at 3 days, 1 µM [5]: 78%; viability at 3 days, 3 µM [5]: 75%; viability at 3 days, 10 µM [5]: 45%
